Source: patent US20240240256A1, “MOLECULAR ANALYSIS OF EXTRACELLULAR VESICLES (EVs) FOR THE PREDICTION AND MONITORING OF DRUG RESISTANCE IN CANCER” (The General Hospital Corporation, priority 2023, published 2024)
pIC50: −log10 of the molar value.

Experiments:
[1] = test system: HCC1954 REPX; test: MTT growth inhibition assay, paclitaxel-resistant subtype; format: cell-based, human
Protocol: To develop the paclitaxel resistance subtype, cells were continually exposed to stepwise increases in the concentration of paclitaxel over 16 to 18 weeks. Briefly, HCC1954 cells were seeded at a density of ˜5×10^5/mL in a T75 cell culture flask with 10 mL complete growth medium. After 4-6 hours of incubation, relatively low concentrations of paclitaxel (ranging from 1 to 150 nM) were added into the medium. Cells were left in paclitaxel for three days or until a stable cell re-population formed. Regular medium replenishment was performed throughout this period. The paclitaxel concentration was then increased by 0.5 to 2-fold. This stepwise dose escalation continued for 16 to 18 weeks until the paclitaxel concentration reached at least ten times the starting concentration. […]
Drug sensitivity was determined by the 3-(4, 5-dimethylthiazol-2-yl)-2, 5-diphenyl tetrazolium bromide (MTT) colorimetric assay. First, cells were counted with a hemocytometer, seeded in a 96-well plate, and cultured for 24 h. […] The optical density (OD; absorbance at 540 nm) was measured using a plate reader (Tecan). […]
To generate a resistance cell model in vitro (HCC1954 REPX), the HCC1954 cell line was treated with increasing concentrations of paclitaxel, and cell viability was re-evaluated after 18 weeks of treatment.

[2] = test system: BT474; test: MTT growth inhibition assay, paclitaxel drug sensitivity; format: cell-based; conditions: Homo sapiens, BT-474, BT474 breast cancer cells, 72 h treatment, read-out: paclitaxel inhibitor concentration 50 (IC50)
Protocol: (§1) The human breast cancer cell lines, including HCC1954, BT474, MCF7, MDA-MB-231, HCC1937 cells, and normal breast cell, Hs371T, were purchased from American Type Culture Collection (ATCC) and cultured at 37° C. in 5% CO2. HCC1954, BT474, and HCC1937 cells were grown in RPMI-1640 (Hyclone), and MCF7, MDA-MB-231, and Hs371T cells were cultured in DMEM (Cyclone). All complete media contained 10% fetal bovine serum (FBS, ThermoFisher Scientific), 100 U/mL penicillin, and 100 μg/mL streptomycin (Millipore Sigma).
(§2) Drug sensitivity was determined by the 3-(4, 5-dimethylthiazol-2-yl)-2, 5-diphenyl tetrazolium bromide (MTT) colorimetric assay. First, cells were counted with a hemocytometer, seeded in a 96-well plate, and cultured for 24 h. After that, cells were treated with paclitaxel for 72 h: paclitaxel (1.00E-06-10 µM). Subsequently, MTT dye (Sigma-Aldrich; Merck KGaA) at a final concentration of 0.5 mg/ml was added for 3 hours. This was followed by replacing the medium and dissolving the formazan crystals with DMSO. The optical density (OD; absorbance at 540 nm) was measured using a plate reader (Tecan). Data (mean±SD of at least three independent experiments performed in triplets) are presented as the relative proliferation as a function of time after seeding.
(§3) MTT assay was performed for each cell line to determine the paclitaxel inhibitor concentration 50 (IC50) in the six breast cancer cell lines included.

[3] = test system: HCC1954; test: as above; format: cell-based; conditions: Homo sapiens, HCC1954 breast cancer cells, 72 h treatment, read-out: paclitaxel inhibitor concentration 50 (IC50)
Protocol: as §1, §2, §3

[4] = test system: MD-MB-231; test: as above; format: cell-based; conditions: Homo sapiens, MD-MB-231 breast cancer cells, 72 h treatment, read-out: paclitaxel inhibitor concentration 50 (IC50)
Protocol: as §1, §2, §3

[5] = test system: HCC1937; test: as above; format: cell-based; conditions: Homo sapiens, HCC1937 breast cancer cells, 72 h treatment, read-out: paclitaxel inhibitor concentration 50 (IC50)
Protocol: as §1, §2, §3

SMILES: CC(=O)O[C@H]1C(=O)[C@@]2(C)[C@H]([C@H](OC(=O)c3ccccc3)[C@]3(O)C[C@H](OC(=O)[C@H](O)[C@@H](NC(=O)c4ccccc4)c4ccccc4)C(C)=C1C3(C)C)[C@]1(OC(C)=O)CO[C@@H]1C[C@@H]2O [paclitaxel, Paclitaxel]
- pIC50 ([1]; Homo sapiens, HCC1954 REPX paclitaxel-resistant subtype, after 18 weeks of paclitaxel treatment, MTT): 5.74
- increase in paclitaxel-resistance ([1]; IC50 in HCC1954 REPX compared to parental HCC1954): 128.57 fold
- pIC50 [2]: 7.00
- pIC50 [3]: 7.85
- pIC50 [4]: 6.22
- pIC50 [5]: 5.00
